# Reference: patent US9499519B2, “Fused pyrimidine compounds and use thereof” (Medivation Technologies, Inc., priority 2012, dated 2016)
# Assays:
# Assay type in all cases: biochemical
# Trk C = Trk C (Homo sapiens, UniProt Q16288); experiment: HotSpot kinase assay: Trk C
# Trk A = Trk A (Homo sapiens, UniProt P04629); experiment: HotSpot kinase assay: Trk A; conditions: 100 nM compound, read-out: % Enzyme Inhibition @ 100 nM Trk A
# Protocol: Kinase assays were performed using additional compounds against a panel of 3 kinases: Trk A; Trk B; and Trk C. Each compound was tested at a concentration of 0.1 μM in single duplicate mode against the 3 kinases. Compounds were prepared as 10 mM stock solutions in DMSO prior to use in the assay. […] IC50 values and curve fits were obtained using Prism (GraphPad Software). […]
# The screening was performed using the “HotSpot” assay platform. The assay measures the conversion of a peptide substrate to ^33P-labelled phosphorylated product. Briefly, specific kinase/substrate pairs along with required cofactors were prepared in reaction buffer. Specifically, the substrate was prepared in reaction buffer (20 mM Hepes, pH 7.5; 10 mM MgCl2; 1 mM EGTA; 0.02% Brij35; 0.02 mg/mL BSA; 0.1 mM Na3VO4; 2 mM DTT; 1% DMSO), followed by delivery of any required cofactor to the resulting substrate solution. The corresponding kinase was delivered into the substrate solution and the reaction mixture was mixed gently. Compound was delivered into the reaction mixture, followed 15-20 minutes later by addition of a mixture of ATP (Sigma, St. Louis Mo.) and ^33P ATP (specific activity 0.01 μCi/μL final; Perkin Elmer, Waltham, Mass.) to a final concentration of 10 μM-30 μM to initiate the reaction. Reactions were carried out at room temperature for 120 minutes, followed by spotting of the reactions onto P81 ion exchange filter paper (Whatman #3698-915; Whatman Inc., Piscataway, N.J.). Unbound phosphate was removed by extensive washing of filters in 0.75% phosphoric acid. […] The percent of enzyme inhibition was calculated based on the percent of remaining kinase activity.
# IGF-1R = molecular target: T1, IGF-1R (Homo sapiens, UniProt P08069); experiment: In vitro IGF-1R enzymatic assay (ADP-Glo kinase assay); conditions: activated IGF-1R
# T1 construct: purchased Millipore 14-802
# T1 sequence (P08069 31-1367): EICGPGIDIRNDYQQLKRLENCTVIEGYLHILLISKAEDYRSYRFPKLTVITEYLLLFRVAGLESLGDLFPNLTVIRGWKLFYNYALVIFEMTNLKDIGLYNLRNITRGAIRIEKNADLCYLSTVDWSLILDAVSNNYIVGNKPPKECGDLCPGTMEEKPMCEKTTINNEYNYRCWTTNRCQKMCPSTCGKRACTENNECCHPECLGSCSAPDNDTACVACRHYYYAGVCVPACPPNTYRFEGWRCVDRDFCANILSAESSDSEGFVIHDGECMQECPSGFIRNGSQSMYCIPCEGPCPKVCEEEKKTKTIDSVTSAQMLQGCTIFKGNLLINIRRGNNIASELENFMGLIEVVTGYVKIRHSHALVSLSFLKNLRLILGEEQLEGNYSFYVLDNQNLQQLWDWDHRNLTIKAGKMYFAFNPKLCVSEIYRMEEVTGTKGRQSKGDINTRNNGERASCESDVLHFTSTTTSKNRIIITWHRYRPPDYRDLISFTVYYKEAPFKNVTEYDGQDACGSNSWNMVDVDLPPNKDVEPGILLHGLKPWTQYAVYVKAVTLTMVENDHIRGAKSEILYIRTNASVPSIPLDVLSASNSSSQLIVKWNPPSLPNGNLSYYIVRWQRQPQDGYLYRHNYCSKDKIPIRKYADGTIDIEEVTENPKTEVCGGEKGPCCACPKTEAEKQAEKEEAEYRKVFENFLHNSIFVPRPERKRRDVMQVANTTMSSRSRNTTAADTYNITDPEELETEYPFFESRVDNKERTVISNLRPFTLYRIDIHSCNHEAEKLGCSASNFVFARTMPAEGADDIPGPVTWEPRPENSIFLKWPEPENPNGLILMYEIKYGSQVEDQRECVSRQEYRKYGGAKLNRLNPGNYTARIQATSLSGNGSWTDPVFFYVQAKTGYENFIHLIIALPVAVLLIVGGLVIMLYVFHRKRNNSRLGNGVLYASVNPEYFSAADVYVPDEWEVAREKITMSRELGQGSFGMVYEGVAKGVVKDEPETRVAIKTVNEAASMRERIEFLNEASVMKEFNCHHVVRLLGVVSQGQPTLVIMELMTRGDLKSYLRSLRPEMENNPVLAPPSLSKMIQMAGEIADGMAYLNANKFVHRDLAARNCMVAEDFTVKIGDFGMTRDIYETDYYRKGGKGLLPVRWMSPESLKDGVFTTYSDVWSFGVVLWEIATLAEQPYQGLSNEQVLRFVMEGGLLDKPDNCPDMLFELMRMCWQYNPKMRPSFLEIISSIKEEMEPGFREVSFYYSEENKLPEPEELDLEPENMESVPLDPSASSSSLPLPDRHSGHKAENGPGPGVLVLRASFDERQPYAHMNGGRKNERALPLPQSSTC
# Protocol: IC50 values of the compounds of the invention against IGF-1R and IR were measured in vitro using an ADP-Glo kinase assay Kit (Promega). […] Kinase reactions in both assays were conducted at 30° C. for 20 min with increasing concentrations of compounds of the invention.
# Additional compounds of the invention were screened against activated IGF-1R.
# c-Mer = molecular target: T2, c-Mer (Homo sapiens, UniProt Q12866); experiment: HotSpot kinase assay: c-Mer; conditions: 100 nM compound, read-out: % Enzyme Inhibition @ 100 nM c-MER
# T2 sequence (Q12866 21-999): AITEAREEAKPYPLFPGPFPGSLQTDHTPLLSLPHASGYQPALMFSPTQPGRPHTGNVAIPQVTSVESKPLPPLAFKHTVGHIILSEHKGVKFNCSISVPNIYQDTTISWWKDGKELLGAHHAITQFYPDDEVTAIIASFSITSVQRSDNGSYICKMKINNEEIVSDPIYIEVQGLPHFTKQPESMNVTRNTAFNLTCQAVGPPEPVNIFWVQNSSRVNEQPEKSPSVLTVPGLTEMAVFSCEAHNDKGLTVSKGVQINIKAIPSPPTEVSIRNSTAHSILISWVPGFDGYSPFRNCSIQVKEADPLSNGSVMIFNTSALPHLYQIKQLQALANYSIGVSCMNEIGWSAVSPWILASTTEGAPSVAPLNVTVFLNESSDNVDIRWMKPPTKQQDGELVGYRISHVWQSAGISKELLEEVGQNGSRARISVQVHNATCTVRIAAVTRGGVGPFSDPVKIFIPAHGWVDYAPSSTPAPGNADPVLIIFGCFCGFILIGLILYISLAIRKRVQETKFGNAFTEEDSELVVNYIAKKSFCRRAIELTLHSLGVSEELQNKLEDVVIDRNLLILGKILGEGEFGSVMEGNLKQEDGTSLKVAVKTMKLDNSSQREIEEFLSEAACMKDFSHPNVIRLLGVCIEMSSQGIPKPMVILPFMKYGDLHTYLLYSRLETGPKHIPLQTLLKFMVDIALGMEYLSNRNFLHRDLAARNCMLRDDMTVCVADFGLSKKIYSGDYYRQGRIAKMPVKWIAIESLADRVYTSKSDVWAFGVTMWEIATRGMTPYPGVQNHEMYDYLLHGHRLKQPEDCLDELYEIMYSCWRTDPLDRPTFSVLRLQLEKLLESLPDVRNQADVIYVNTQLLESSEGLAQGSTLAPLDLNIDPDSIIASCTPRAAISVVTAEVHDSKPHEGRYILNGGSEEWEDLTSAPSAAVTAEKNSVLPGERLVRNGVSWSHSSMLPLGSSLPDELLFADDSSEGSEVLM
# Protocol: Kinase assays were performed using additional compounds against a panel of 4 kinases: AXL; c-Met; c-Mer; and Trk C. Each compound was tested at a concentration of […] in single duplicate mode against the 4 kinases. Compounds were prepared as 10 mM stock solutions in DMSO prior to use in the assay. […] IC50 values and curve fits were obtained using Prism (GraphPad Software).
# The screening was performed using the “HotSpot” assay platform. The assay measures the conversion of a peptide substrate to ^33P-labelled phosphorylated product. Briefly, specific kinase/substrate pairs along with required cofactors were prepared in reaction buffer. Specifically, the substrate was prepared in reaction buffer (20 mM Hepes, pH 7.5; 10 mM MgCl2; 1 mM EGTA; 0.02% Brij35; 0.02 mg/mL BSA; 0.1 mM Na3VO4; 2 mM DTT; 1% DMSO), followed by delivery of any required cofactor to the resulting substrate solution. The corresponding kinase was delivered into the substrate solution and the reaction mixture was mixed gently. Compound was delivered into the reaction mixture, followed 15-20 minutes later by addition of a mixture of ATP (Sigma, St. Louis Mo.) and ^33P ATP (specific activity 0.01 μCi/μL final; Perkin Elmer, Waltham, Mass.) to a final concentration of 10 μM-30 μM to initiate the reaction. […] The percent of enzyme inhibition was calculated based on the percent of remaining kinase activity.
# Sequence of Trk C (Q16288 32-839): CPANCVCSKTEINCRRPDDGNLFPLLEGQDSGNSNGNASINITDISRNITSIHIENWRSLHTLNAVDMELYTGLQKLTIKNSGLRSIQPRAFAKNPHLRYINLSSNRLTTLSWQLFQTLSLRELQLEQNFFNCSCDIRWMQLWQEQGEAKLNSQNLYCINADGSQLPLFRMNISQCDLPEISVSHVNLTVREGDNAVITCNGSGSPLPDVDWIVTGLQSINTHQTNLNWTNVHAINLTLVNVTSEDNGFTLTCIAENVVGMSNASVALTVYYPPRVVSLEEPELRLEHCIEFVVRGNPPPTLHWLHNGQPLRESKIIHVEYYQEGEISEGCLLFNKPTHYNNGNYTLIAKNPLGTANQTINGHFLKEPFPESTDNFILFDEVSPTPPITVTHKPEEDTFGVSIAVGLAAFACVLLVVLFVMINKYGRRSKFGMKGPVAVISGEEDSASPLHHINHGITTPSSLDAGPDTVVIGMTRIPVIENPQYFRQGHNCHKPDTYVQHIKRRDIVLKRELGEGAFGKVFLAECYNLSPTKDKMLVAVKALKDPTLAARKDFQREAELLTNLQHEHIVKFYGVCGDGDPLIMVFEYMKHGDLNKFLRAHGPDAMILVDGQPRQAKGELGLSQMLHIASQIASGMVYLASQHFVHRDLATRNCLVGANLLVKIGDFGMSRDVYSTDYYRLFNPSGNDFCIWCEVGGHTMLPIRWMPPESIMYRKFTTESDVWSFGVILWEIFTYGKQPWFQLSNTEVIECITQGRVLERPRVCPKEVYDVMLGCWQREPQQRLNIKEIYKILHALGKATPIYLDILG
# Sequence of Trk A (P04629 33-796): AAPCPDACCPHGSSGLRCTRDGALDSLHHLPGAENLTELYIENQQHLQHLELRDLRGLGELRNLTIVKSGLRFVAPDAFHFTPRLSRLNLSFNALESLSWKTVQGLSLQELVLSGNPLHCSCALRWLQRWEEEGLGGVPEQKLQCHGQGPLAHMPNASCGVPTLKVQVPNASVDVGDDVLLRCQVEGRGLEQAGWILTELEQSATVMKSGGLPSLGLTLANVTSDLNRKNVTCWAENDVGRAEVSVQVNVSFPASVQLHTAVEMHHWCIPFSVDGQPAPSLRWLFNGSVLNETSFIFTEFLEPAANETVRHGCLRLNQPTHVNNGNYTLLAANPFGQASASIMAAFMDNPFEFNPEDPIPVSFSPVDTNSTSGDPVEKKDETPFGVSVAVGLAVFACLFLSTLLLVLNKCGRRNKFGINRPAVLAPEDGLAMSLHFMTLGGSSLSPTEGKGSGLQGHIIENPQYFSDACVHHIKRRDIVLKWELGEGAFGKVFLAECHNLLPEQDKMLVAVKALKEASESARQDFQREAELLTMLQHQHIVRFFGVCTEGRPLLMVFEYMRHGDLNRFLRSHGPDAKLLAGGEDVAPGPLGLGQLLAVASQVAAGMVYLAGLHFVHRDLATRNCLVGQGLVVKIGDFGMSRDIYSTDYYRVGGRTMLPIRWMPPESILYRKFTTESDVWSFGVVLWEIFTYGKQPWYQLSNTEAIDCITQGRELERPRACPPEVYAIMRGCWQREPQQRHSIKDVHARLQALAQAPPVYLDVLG
structure (smiles),measurement,setting,value
"CC(C)c1cc(Nc2nc(N3CCCC3C(=O)N(C)C)nc3c2CCC3)n[nH]1 (single isomer, unassigned) [Compound 20b, 1-(4-(5-isopropyl-1H-pyrazol-3-ylamino)-6,7-dihydro-5H-cyclopenta[d]pyrimidin-2-yl)-N,N-dimethylpyrrolidine-2-carboxamide]",inhibition at 0.1 µM,"Trk C; 100 nM compound, HotSpot, read-out: % Enzyme Inhibition @ 100 nM Trk C",> 60%
same,IC50,Trk C; Trk C,0.0551 µM
same,selectivity for Trk C inhibition over IGF-1R,Trk C; Trk C over IGF-1R,about 60 fold
same,selectivity for Trk C inhibition over IR,Trk C; Trk C over IR,about 30 fold
same,inhibition at 0.1 µM,Trk A,< 39%
same,IC50,IGF-1R,3.2 µM
same,inhibition at 0.03 µM,"IGF-1R; 30 nM, average, read-out: % Inh @ 30 nM Avg",9%
same,inhibition at 0.1 µM,c-Mer,< 39%
